In publication PMC11982498 (Redox Biology, 2025):

Columns and labels:
Aβ1-42 = molecular target: T1, Aβ1-42 (Homo sapiens, UniProt P05067); test: Thioflavine T (ThT) assay of self-induced Aβ1-42 aggregation; assay type: biochemical
T1 construct: Aβ1-42 was purchased from Gill Biochemicals Ltd (Shanghai, China); purchased Gill Biochemicals Ltd (Shanghai, China)
Method: The experiment was performed following standardized amyloid detection protocols without significant modification. Curcumin (Aladdin, Shanghai, China), a natural inhibitor of Aβ deposition, was used as a positive control with ThT (Aladdin, Shanghai, China) as a fluorescent indicator. 30 μL of freshly formulated Aβ1-42 (30 μM) was incubated without or with A1-16, B1-14, Curcumin at concentration of 40 μM for 24h. Then, it was mixed with 400 μL of freshly formulated ThT (15 μM), which was incubated in the dark for 30 min. Fluorescence signals were recorded using a fluorescence spectrophotometer, and changes in Aβ fibre deposition were determined through the strength of the fluorescence signals. The scanning conditions were set as follows: excitation wavelength at 440 nm, emission wavelength at 480 nm, and slit width of 20 nm.
^a Self-induced Aβ1-42 aggregation (means ± SD of three experiments). The thioflavin-T fluorescence method was used, and the measurements were carried out in the presence of 40 μM test compound. […]
[picture] […] The fluorescence intensity of different concentrations of B14 was measured after incubation with Aβ1-42. Data were statistically analyzed as mean ± SEM. (A) ThT fluorescence intensity. (B) IC50 value for B14 against Aβ1-42 aggregation was determined by using ThT fluorescence intensity.

[1] = test system: C-MYC gene transcription in SH-SY5Y cells; test: Real-time RT-PCR in SH-SY5Y cells, C-MYC; assay type: cell-based, human
Method: SH-SY5Y cells were treated with or without B14, and total RNA was subsequently isolated and purified. Reverse transcription was performed using a cDNA synthesis kit. The relative transcription levels of the genes were evaluated through quantitative real-time PCR using the SYBR Green-based method, as described in the Supplementary Date. Details regarding the primer sequences and the raw data can be found in Table S7 and Table S8.
^a -∆∆Ct = -[(Ct value of genes in treated sample - Ct value of genes in control) - (Ct value of β-actin in treated sample - Ct value of β-actin in control)]. ^b F: The relative expression fold.
Experiment 1: SH-SY5Y cells were treated with different concentration of B14. The Ct values of BAX, VEGF, CMYC and BCL-2 were obtained.
Total RNA was extracted from cells and mice liver tissue using RNAiso Plus (Takara, 9109, Japan). Following sample homogenization, chloroform was added, and the solution was allowed to have phase separation into an upper aqueous layer (containing RNA), an interphase, and a lower organic layer (containing DNA and proteins). RNA was precipitated from the aqueous phase using isopropanol, while DNA was precipitated from the aqueous-organic interphase using ethanol. Complementary DNA (cDNA) was synthesized using the One-Step RT-PCR Kit (Takara, Cat#639503, Japan).
Quantitative real-time polymerase chain reaction (qRT-PCR) was performed using the 2× RealStar SYBR Mixture (GenStar, Cat# A301-10, Guangzhou, China) on a LightCycler 480 II real-time PCR system (Roche, USA). Data were analyzed using the 2^−ΔΔCt method. Actin served as the internal control, and relative mRNA levels were normalized accordingly.

[2] = test system: BCL-2, BAX, Cyto-C, Cleaved-caspase 9, Cleaved-caspase 3 in hippocampus of APP/PS1 mice; test: Western blot and immunofluorescence of apoptosis related factors in hippocampus; assay type: in vivo; settings: B14 10, 20, 40 mg/kg i.p. every other day
Method: Protein samples (25–40 μg) were separated using 10 % SDS-PAGE and subsequently transferred onto PVDF membranes (0.22 μm, Servicebio, Guangzhou, China) via electro transfer. Following blocking with TBST solution (Servicebio, Guangzhou, China) containing 5 % BSA (Solarbio, Beijing, China) for approximately 60 min at room temperature, the membrane was exposed to various primary antibodies overnight at 4 °C on a rotating shaker. Then, the membranes were incubated with HRP-conjugated secondary antibody (Affinity, Changzhou, China) for 2 h. Protein bands were then detected using an ECL kit. The signal intensity of each target protein was quantified using Image J 1.8.0 software (Bio-Rad Laboratories, California, USA).
Five months old male APP/PS1 mice, weighing 25–33 g, were purchased from Guangdong Medical Laboratory Animal Center and housed in the Laboratory Animal Center of Sun Yat-sen University (Guangzhou, China) for experimentation. All procedures were approved by the Animal Care and Use Committee of Sun Yat-sen University and complied with legal requirements and national guidelines for the care and maintenance of laboratory animals (Approval No. SYSU-IACUC-2024-002032). The mice were housed in a specific pathogen-free environment with a controlled temperature of 22 ± 1 °C and a 12-h dark/light cycle. […]

[3] = test system: Aβ deposition in hippocampus of APP/PS1 mice; test: Immunofluorescence of hippocampal Aβ deposition; assay type: in vivo; settings: B14 10, 20, 40 mg/kg i.p. every other day
Description: Five months old male APP/PS1 mice, weighing 25–33 g, were purchased from Guangdong Medical Laboratory Animal Center and housed in the Laboratory Animal Center of Sun Yat-sen University (Guangzhou, China) for experimentation. All procedures were approved by the Animal Care and Use Committee of Sun Yat-sen University and complied with legal requirements and national guidelines for the care and maintenance of laboratory animals (Approval No. SYSU-IACUC-2024-002032). The mice were housed in a specific pathogen-free environment with a controlled temperature of 22 ± 1 °C and a 12-h dark/light cycle. The mice were fed with a standard diet, and 30 mice were randomly divided into 6 groups (N = 5). Compound B14 was dissolved in saline and administered at doses of 10, 20, or 40 mg/kg. APP/PS1 male mice were grown until 6 months of age, and then injected intraperitoneally with compound B14 every other day for 60 days. Behavioral experiments were then conducted, and tissue specimens were collected for biochemical analysis.

T1 sequence (P05067 672-713 limits assumed): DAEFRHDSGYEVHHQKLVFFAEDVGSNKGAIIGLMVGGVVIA

## O=C(CCN1CCOCC1)Nc1ccc2c(c1)c(=O)c1cc(NC(=O)CCN3CCOCC3)ccc1n2-c1ccc2occc2c1 [Compound B14]
Aβ1-42; 40 μM compound, ThT fluorescence, read-out: inhibition of Aβ self-aggregation
  inhibition at 40 µM: 78.4%
Aβ1-42; ThT fluorescence intensity, read-out: IC50 against Aβ1-42 aggregation
  IC50: 24 µM
[1]; 6.25 μM B14
  -∆∆Ct, C-MYC: -0.01
  F = 2^-∆∆Ct (relative expression fold), C-MYC: 1.00
[1]; 12.5 μM B14
  -∆∆Ct, C-MYC: -0.02
  F = 2^-∆∆Ct (relative expression fold), C-MYC: 1.01
[1]; 25 μM B14
  -∆∆Ct, C-MYC: -0.03
  F = 2^-∆∆Ct (relative expression fold), C-MYC: 1.02
[2]
  expression level of BCL-2 in hippocampus: effectively increased the expression level of BCL-2
  expression levels of pro-apoptotic factors in hippocampus: decreased the expression levels of BAX, Cyto-C, Cleaved-caspase 9 and Cleaved-caspase 3
[3]
  hippocampal Aβ deposition: significantly reduced in a dose-dependent manner
